In patent US20220088016A1, “CANCER TREATMENT USING MULTI-TARGETED KINASE INHIBITOR IN COMBINATION OF PROTEIN KINASE BIOMARKERS” (ZHEJIANG CROWNMAB BIOTECH CO. LTD., priority 2019, published 2022):

Assays:
Assay in all cases: Kinase profiling
Format in all cases: binding
Details in all cases: read-out: % Ctrl @ 1000 nM
[1] = molecular target: AAK1 (Homo sapiens, UniProt Q2M2I8)
[2] = molecular target: ACVR2A (Homo sapiens, UniProt P27037)
[3] = molecular target: AKT3 (Homo sapiens, UniProt Q9Y243)
[4] = molecular target: ALK (C1156Y) (Homo sapiens, UniProt Q9UM73, C1156Y)
[5] = molecular target: BMPR1A (Homo sapiens, UniProt P36894)
[6] = molecular target: BRAF (V600E) (Homo sapiens, UniProt P15056, V600E)
[7] = molecular target: BRSK1 (Homo sapiens, UniProt Q8TDC3)
[8] = molecular target: BTK (Homo sapiens, UniProt Q06187)
[9] = molecular target: CAMKK1 (Homo sapiens, UniProt Q8N5S9)
[10] = molecular target: CSNK1D (Homo sapiens, UniProt P48730)
[11] = molecular target: CSNK2A1 (Homo sapiens, UniProt P68400)
[12] = molecular target: DAPK2 (Homo sapiens, UniProt Q9UIK4)
[13] = molecular target: DMPK (Homo sapiens, UniProt Q09013)
[14] = molecular target: EGFR (G719S) (Homo sapiens, UniProt P00533, G719S)
[15] = molecular target: ERBB3 (Homo sapiens, UniProt P21860)
[16] = molecular target: ERK1 (Homo sapiens, UniProt P27361)
[17] = molecular target: FAK (Homo sapiens, UniProt Q05397)
[18] = molecular target: FGFR1 (Homo sapiens, UniProt P11362)
[19] = molecular target: FGFR2 (Homo sapiens, UniProt P21802)
[20] = molecular target: FYN (Homo sapiens, UniProt P06241)
[21] = molecular target: HIPK4 (Homo sapiens, UniProt Q8NE63)
[22] = molecular target: LIMK1 (Homo sapiens, UniProt P53667)
[23] = molecular target: LRRK2 (G2019S) (Homo sapiens, UniProt Q5S007, G2019S)
[24] = molecular target: LZK (Homo sapiens, UniProt O43283)
[25] = molecular target: MAP3K3 (Homo sapiens, UniProt Q99759)
[26] = molecular target: MAP3K4 (Homo sapiens, UniProt Q9Y6R4)
[27] = molecular target: MAP4K3 (Homo sapiens, UniProt Q8IVH8)
[28] = molecular target: T1, MET (Y1235D) (Homo sapiens, UniProt P08581, Y1235D)
T1 construct: T7 phage fusion (stated for most kinases of the panel only); made in house; host or cells: T7 phage in E. coli (BL21-derived) or HEK-293 cells

[29] = molecular target: T2, MYO3A (Homo sapiens, UniProt Q8NEV4)
T2 construct: T7 phage fusion (said for most assays); made in house

[30] = molecular target: p38-gamma (Homo sapiens, UniProt P53778)
[31] = molecular target: PIK3CD (Homo sapiens, UniProt O00329)
[32] = molecular target: PKAC-alpha (Homo sapiens, UniProt P17612)
[33] = molecular target: RIOK2 (Homo sapiens, UniProt Q9BVS4)
[34] = molecular target: ROCK1 (Homo sapiens, UniProt Q13464)
[35] = molecular target: RSK4 (Kin.Dom.2-C-terminal) (Homo sapiens, UniProt Q9UK32)
[36] = molecular target: SRPK1 (Homo sapiens, UniProt Q96SB4)
[37] = molecular target: TNK1 (Homo sapiens, UniProt Q13470)
[38] = molecular target: TTK (Homo sapiens, UniProt P33981)
[39] = molecular target: ULK1 (Homo sapiens, UniProt O75385)

T1 sequence (P08581 25-1390 Y1235D): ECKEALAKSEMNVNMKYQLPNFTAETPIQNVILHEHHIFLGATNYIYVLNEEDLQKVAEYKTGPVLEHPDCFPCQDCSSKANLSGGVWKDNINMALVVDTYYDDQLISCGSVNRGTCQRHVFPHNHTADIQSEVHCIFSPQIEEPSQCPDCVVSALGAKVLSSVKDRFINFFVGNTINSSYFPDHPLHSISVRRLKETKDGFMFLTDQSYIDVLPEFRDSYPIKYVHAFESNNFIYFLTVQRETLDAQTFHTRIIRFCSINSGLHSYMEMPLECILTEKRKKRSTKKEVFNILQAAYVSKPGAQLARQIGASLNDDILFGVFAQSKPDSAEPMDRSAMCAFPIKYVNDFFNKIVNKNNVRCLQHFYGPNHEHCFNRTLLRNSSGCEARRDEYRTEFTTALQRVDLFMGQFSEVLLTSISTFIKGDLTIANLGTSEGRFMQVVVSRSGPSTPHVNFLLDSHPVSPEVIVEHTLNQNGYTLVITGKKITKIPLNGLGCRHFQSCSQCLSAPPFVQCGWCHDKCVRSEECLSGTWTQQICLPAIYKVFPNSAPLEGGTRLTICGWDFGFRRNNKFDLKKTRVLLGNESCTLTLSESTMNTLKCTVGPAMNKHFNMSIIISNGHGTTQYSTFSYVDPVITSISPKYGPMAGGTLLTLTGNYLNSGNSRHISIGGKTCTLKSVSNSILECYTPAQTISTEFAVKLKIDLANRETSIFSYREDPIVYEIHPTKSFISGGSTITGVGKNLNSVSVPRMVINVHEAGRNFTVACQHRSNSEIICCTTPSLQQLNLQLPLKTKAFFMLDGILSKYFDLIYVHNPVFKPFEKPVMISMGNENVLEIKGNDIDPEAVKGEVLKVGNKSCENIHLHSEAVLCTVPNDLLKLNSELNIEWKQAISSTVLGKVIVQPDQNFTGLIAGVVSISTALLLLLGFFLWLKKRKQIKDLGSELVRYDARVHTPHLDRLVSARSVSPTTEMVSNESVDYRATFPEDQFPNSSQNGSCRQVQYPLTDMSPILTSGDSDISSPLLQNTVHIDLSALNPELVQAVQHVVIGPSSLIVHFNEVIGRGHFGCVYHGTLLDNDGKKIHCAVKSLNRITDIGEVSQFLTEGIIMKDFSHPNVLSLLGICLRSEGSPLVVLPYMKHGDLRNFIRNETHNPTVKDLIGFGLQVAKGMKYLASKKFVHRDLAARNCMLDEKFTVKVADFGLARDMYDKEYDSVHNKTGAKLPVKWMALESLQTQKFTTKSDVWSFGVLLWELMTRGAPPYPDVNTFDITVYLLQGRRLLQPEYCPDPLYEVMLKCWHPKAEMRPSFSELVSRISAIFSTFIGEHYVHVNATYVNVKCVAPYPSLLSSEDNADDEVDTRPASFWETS
TTK, sequence (P33981 whole entry): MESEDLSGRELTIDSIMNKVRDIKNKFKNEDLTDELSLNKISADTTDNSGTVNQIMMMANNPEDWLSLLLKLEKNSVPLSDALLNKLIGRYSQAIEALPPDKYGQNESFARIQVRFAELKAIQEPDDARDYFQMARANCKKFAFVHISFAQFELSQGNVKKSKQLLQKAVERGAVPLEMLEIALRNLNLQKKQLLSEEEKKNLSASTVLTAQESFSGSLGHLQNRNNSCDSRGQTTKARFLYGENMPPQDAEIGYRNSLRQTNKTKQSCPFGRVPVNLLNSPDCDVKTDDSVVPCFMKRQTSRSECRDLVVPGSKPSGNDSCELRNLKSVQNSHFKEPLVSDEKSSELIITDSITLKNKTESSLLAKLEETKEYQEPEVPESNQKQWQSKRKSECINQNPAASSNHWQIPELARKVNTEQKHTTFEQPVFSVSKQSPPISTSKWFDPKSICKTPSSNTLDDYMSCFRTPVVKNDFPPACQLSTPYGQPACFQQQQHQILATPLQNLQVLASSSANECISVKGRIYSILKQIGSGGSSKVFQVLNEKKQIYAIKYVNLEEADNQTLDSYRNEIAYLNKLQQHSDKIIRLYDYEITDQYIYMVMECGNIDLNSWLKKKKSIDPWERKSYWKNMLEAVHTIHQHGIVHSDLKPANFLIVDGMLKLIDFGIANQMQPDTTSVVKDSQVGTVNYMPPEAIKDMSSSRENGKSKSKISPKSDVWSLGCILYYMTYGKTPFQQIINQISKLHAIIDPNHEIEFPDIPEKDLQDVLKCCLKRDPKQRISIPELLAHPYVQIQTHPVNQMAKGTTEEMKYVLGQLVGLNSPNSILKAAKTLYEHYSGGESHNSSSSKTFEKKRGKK
FAK, sequence (Q05397 whole entry): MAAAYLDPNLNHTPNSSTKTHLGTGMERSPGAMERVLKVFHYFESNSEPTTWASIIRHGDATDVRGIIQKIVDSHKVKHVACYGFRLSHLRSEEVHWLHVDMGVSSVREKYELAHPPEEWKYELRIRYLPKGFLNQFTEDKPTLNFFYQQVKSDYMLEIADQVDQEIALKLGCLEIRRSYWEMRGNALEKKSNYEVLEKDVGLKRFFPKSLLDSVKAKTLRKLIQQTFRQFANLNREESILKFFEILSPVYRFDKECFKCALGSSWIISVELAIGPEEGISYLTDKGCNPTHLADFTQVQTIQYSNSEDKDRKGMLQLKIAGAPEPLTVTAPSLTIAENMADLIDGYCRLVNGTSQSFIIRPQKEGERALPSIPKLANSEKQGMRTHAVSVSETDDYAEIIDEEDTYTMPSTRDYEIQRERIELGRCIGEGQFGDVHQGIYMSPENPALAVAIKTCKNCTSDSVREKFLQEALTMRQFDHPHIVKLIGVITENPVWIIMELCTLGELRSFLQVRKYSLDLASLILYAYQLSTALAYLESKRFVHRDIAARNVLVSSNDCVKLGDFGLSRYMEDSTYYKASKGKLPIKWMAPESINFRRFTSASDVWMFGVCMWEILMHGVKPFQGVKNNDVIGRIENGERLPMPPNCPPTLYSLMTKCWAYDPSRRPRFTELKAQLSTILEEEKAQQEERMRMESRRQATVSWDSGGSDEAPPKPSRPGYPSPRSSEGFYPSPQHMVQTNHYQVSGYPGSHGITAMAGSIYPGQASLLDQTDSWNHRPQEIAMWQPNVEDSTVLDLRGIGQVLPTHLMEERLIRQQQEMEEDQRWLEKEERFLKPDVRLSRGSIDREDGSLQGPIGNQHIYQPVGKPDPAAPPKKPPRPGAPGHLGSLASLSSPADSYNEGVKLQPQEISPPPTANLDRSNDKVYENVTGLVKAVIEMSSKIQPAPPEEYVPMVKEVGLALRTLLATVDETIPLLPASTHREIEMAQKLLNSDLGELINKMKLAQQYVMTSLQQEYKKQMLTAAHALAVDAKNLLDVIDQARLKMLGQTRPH
CSNK2A1, sequence (P68400 whole entry): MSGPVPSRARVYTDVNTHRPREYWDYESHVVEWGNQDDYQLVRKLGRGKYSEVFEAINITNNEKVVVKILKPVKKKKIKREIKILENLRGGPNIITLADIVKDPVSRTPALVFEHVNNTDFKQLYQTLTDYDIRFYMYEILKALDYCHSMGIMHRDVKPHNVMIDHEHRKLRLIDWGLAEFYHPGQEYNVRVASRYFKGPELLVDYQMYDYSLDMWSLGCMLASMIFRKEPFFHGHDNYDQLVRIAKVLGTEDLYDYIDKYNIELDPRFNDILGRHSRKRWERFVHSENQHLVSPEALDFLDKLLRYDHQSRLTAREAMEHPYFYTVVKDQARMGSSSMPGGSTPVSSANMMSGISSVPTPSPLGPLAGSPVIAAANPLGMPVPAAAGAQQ
ERBB3, sequence (P21860 20-1342): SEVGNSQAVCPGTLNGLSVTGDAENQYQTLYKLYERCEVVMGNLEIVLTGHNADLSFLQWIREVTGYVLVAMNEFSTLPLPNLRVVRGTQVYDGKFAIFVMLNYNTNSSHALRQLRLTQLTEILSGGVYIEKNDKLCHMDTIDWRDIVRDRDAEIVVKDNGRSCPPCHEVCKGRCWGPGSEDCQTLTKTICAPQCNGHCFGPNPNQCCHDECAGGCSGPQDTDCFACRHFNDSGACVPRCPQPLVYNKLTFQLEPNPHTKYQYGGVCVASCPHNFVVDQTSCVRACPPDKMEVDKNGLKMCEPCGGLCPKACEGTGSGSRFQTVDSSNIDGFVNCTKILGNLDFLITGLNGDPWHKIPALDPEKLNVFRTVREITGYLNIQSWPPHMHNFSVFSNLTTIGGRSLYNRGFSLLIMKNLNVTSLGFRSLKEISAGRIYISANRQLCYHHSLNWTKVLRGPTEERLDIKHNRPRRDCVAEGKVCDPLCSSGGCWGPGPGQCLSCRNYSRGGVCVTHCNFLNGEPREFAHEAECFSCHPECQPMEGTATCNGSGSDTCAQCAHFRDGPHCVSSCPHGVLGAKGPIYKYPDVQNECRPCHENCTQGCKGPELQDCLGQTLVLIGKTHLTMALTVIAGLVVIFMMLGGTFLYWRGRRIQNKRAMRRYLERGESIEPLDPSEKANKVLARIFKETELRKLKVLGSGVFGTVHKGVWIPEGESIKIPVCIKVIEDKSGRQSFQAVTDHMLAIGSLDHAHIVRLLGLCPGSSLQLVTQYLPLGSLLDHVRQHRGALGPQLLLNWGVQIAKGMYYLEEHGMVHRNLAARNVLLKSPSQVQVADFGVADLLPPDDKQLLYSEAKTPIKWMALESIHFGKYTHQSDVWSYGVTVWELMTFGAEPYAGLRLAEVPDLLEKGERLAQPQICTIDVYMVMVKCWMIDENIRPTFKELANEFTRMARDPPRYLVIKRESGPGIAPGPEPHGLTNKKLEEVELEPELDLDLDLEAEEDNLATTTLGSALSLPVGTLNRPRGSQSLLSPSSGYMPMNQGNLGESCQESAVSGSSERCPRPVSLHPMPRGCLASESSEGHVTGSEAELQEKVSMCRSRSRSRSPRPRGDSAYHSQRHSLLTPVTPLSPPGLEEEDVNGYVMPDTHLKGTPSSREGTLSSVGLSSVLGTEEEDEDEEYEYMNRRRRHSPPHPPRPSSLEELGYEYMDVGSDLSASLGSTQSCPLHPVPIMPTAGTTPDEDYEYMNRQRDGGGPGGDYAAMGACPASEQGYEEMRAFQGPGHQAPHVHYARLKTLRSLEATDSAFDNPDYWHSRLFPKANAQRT

`Cc1cc(Oc2cc(NC(=O)C3CC3)ncn2)ccc1NC(=O)Nc1ccc(Cl)c(C(F)(F)F)c1` [CBT-102] showed a remaining activity at 1 µM [1] of 96%, a remaining activity at 1 µM [2] of 100% and a remaining activity at 1 µM [3] of 97%. The remaining activity at 1 µM [4] was 97%, the remaining activity at 1 µM [5] was 54% and the remaining activity at 1 µM [6] was 1.8%. The remaining activity at 1 µM [7] was 95%, the remaining activity at 1 µM [8] was 77% and the remaining activity at 1 µM [9] was 88%. It also gave a remaining activity at 1 µM [10] of 77%, a remaining activity at 1 µM [11] of 100% and a remaining activity at 1 µM [12] of 95%. It also gave a remaining activity at 1 µM [13] of 93%, a remaining activity at 1 µM [14] of 84% and a remaining activity at 1 µM [15] of 100%. For the same molecule, the remaining activity at 1 µM [16] was 91%, the remaining activity at 1 µM [17] was 86% and the remaining activity at 1 µM [18] was 61%. It also gave a remaining activity at 1 µM [19] of 62%, a remaining activity at 1 µM [20] of 76% and a remaining activity at 1 µM [21] of 11%. It also gave a remaining activity at 1 µM [22] of 74%, a remaining activity at 1 µM [23] of 38% and a remaining activity at 1 µM [24] of 97%. For the same molecule, the remaining activity at 1 µM [25] was 95%, the remaining activity at 1 µM [26] was 100% and the remaining activity at 1 µM [27] was 19%. It also gave a remaining activity at 1 µM [28] of 79%, a remaining activity at 1 µM [29] of 81% and a remaining activity at 1 µM [30] of 28%. It also gave a remaining activity at 1 µM [31] of 100%, a remaining activity at 1 µM [32] of 97% and a remaining activity at 1 µM [33] of 92%. For the same molecule, the remaining activity at 1 µM [34] was 100%, the remaining activity at 1 µM [35] was 73% and the remaining activity at 1 µM [36] was 56%. It also gave a remaining activity at 1 µM [37] of 52%, a remaining activity at 1 µM [38] of 61% and a remaining activity at 1 µM [39] of 98%.
